Structures are written as SMILES.

T1 sequence (P09874 whole entry): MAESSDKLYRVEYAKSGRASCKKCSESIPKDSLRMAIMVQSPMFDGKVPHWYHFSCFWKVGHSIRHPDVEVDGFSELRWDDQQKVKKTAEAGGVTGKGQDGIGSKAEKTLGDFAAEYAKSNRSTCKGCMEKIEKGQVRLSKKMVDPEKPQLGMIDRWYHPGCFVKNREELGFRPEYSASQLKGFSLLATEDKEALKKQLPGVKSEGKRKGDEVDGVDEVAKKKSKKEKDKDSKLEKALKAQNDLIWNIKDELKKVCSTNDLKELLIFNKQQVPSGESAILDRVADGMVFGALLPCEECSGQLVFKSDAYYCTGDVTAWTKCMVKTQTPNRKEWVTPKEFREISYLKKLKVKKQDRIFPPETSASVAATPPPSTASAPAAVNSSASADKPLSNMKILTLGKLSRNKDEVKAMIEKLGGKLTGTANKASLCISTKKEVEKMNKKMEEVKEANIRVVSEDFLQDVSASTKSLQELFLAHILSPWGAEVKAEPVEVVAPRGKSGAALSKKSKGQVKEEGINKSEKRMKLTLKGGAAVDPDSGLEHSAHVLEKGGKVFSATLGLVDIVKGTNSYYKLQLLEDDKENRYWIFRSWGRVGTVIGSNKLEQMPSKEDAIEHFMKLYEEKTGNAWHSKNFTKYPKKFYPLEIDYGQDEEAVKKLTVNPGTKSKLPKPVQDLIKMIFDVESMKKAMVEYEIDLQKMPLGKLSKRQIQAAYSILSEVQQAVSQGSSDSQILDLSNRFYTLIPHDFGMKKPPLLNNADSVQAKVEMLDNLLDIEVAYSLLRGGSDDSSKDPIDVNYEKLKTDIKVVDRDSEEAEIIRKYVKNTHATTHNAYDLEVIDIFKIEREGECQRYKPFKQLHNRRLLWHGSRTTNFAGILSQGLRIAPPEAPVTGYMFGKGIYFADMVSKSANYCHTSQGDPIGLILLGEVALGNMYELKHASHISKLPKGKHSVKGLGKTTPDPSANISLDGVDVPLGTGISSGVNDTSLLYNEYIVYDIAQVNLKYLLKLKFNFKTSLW

This test concerns the target T1, Human PARP-1 enzyme (Homo sapiens, UniProt P09874).
T1 construct: purchased Trevigen
Briefly: In vitro Scintillation Proximity Assay (SPA) for PARP-1 inhibitory activity. Format: biochemical. Conditions: read-out: in vitro SPA assay PARP-1 pIC50 (converted). The method, boiled down:
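SPA assay: nicked-DNA-activated PARP-1 (0.1–0.2 μg/ml) ADP-ribosylates biotinylated histones (2 μg/ml) using [3H]-NAD+, 20 min at RT in Tris pH 8/DTT/MgCl2, stopped with 2 mM NAD+. Blank-subtracted cpm expressed as % control; IC50 by linear interpolation, reported as pIC50 (10−5 to 3×10−9 M tested).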
With `Cc1cc2ccc(C(C)(C#N)C3CCc4c(C#N)cccc43)cc2[nH]c1=O` (racemic) [Compound 393], the IC50 is 100 nM.
The value for `CCc1cc2ccc([C@@](C)(C#N)CN(C)Cc3ccc(C#N)cc3)cc2[nH]c1=O` (single isomer, unassigned) [Compound 253] was 100 nM; that for `CCc1cc2ccc(C(C)(C#N)C3CCc4ccc(Br)cc43)cc2[nH]c1=O` (single isomer, unassigned) [Compound 380] was 126 nM; that for `CCc1cc2ccc(C(C)(C#N)C3CCc4ccc(Br)cc43)cc2[nH]c1=O` (single isomer, unassigned) [Compound 381] was 79.4 nM.
Under `Cc1cc2ccc([C@](C)(C#N)C3CCc4cccnc43)cc2[nH]c1=O` (single isomer, unassigned) [Compound 388] stands 200 nM; under `CCc1cc2ccc([C@](C)(C#N)[C@H]3CCOc4ccccc43)cc2[nH]c1=O` (single isomer, unassigned) [Compound 394], 200 nM; under `CCc1cc2ccc([C@@](C)(C#N)[C@H]3CCOc4ccccc43)cc2[nH]c1=O` (single isomer, unassigned) [Compound 395], 63.1 nM.
Regarding `CCc1cc2ccc([C@](C)(C#N)C[C@H]3CCc4ccccc4O3)cc2[nH]c1=O` (single isomer, unassigned) [Compound 396], the IC50 is 100 nM.
As for `CCc1cc2ccc(C(C)(C#N)Cc3cccc(-c4cnn(C)c4)c3)cc2[nH]c1=O` (stereo not shown) [Compound 17], the IC50 was 251 nM.
For `CCc1cc2ccc(C(C)(C#N)Cc3cccc(-c4ccccc4)c3)cc2[nH]c1=O` (stereo not shown) [Compound 18], the IC50 was 2000 nM.
As to `CCc1cc2ccc(C(C)(C#N)Cc3cccc(I)c3)cc2[nH]c1=O` (stereo not shown) [Compound 19], the IC50 is 1000 nM.
The value for `CCc1cc2ccc(C(C)(C#N)Cc3cccc(N(C)C)c3)cc2[nH]c1=O` (stereo not shown) [Compound 20] was 398 nM.
As for `CCc1cc2ccc(C(C)(C#N)Cc3cccc(N4CCOCC4)c3)cc2[nH]c1=O` (stereo not shown) [Compound 21], the IC50 was 398 nM.
Regarding `CCc1cc2ccc(C(C)(C#N)Cc3cccc(O)c3)cc2[nH]c1=O` (stereo not shown) [Compound 22], the IC50 is 126 nM.
In the case of `CCc1cc2ccc(C(C)(C#N)Cc3cccc(OCc4ccccc4)c3)cc2[nH]c1=O` (stereo not shown) [Compound 23], the IC50 was 1260 nM.
`CCc1cc2ccc(C(C)(C#N)Cc3cccc(OCCOC)c3)cc2[nH]c1=O` (stereo not shown) [Compound 24]: the IC50 was 631 nM.
The value for `CCC(=O)c1cccc(CC(C)(C#N)c2ccc3cc(C)c(=O)[nH]c3c2)c1` (stereo not shown) [Compound 173] was 126 nM; that for `CCc1cc2ccc(C(C)(C#N)Cc3cc(C)cc(C#N)c3)cc2[nH]c1=O` (stereo not shown) [Compound 174] was 39.8 nM.
Regarding `CCc1cc2ccc(C(C)(C#N)Cc3cccc(S(F)(F)(F)(F)F)c3)cc2[nH]c1=O` (stereo not shown) [Compound 177], the IC50 is 79.4 nM.
Regarding `CCc1cc2ccc(C(C)(C#N)Cc3cccc(C4(N)CC4)c3)cc2[nH]c1=O` (stereo not shown) [Compound 180], the IC50 is 25.1 nM.
Under `CCc1cc2ccc(C(C)(C#N)CCCN(C)C(=O)c3ccc(F)cc3)cc2[nH]c1=O` (stereo not shown) [Compound 188] stands 79.4 nM; under `CCc1cc2ccc([C@](C)(C#N)CN(C)Cc3ccc(C#N)cc3)cc2[nH]c1=O` [Compound 190], 63.1 nM; under `Cc1cc2ccc(C(C)(C#N)Cc3cccc(Oc4ncccn4)c3)cc2[nH]c1=O` (stereo not shown) [Compound 191], 126 nM.
The value for `Cc1cc2ccc(C(C)(C#N)Cc3cccc(Oc4ccccc4)n3)cc2[nH]c1=O` (stereo not shown) [Compound 193] was 100 nM; that for `CCc1cc2cc(C)c(C(C)(C#N)Cc3cccc(C#N)n3)cc2[nH]c1=O` (stereo not shown) [Compound 208] was 100 nM; that for `CCc1cc2ccc(C(C)(C#N)Cc3ccc(Cl)nc3Cl)cc2[nH]c1=O` (stereo not shown) [Compound 212] was 20 nM.
The value for `COc1cc2ccc(C(C)(C#N)Cc3cccc(C#N)n3)cc2[nH]c1=O` (stereo not shown) [Compound 218] was 631 nM; that for `CCc1cnc(OCCC(C)(C#N)c2ccc3cc(CC)c(=O)[nH]c3c2)nc1` (stereo not shown) [Compound 222] was 50.1 nM.
For `CCc1cc2ccc(C(C)(C#N)CCOc3nccc(OC)n3)cc2[nH]c1=O` (stereo not shown) [Compound 223], the IC50 was 50.1 nM.
Consider `CCc1cc2ccc(C(C)(C#N)Cc3ccc(OC)nc3Cl)cc2[nH]c1=O` (stereo not shown) [Compound 224], for which the IC50 is 12.6 nM.
The value for `CCc1cc2ccc(C(C)(C#N)Cc3ccc(Cl)nc3OC)cc2[nH]c1=O` (stereo not shown) [Compound 225] was 39.8 nM; that for `CCc1cc2ccc(C(C)(C#N)Cc3cccc(N4CCCC4)n3)cc2[nH]c1=O` (stereo not shown) [Compound 226] was 50.1 nM.
On to `Cc1cc2ccc(C(C)(C#N)Cc3cccc(C#N)n3)cc2[nH]c1=O` (stereo not shown) [Compound 227], for which the IC50 was 100 nM.
The value for `CCc1cc2ccc(C(C)(C#N)Cc3cc(OC)cc(OC)n3)cc2[nH]c1=O` (stereo not shown) [Compound 232] was 25.1 nM; that for `CCc1cc2ccc(C(C)(C#N)Cc3cc(C#N)cc4c3OCC4)cc2[nH]c1=O` (stereo not shown) [Compound 236] was 20 nM.
Regarding `CCc1cc2ccc(C(C)(C#N)Cc3cc4ccccc4nn3)cc2[nH]c1=O` (stereo not shown) [Compound 238], the IC50 is 39.8 nM.
In the case of `Cc1cc2ccc([C@@](C)(C#N)[C@@H]3CCc4cc(Br)ccc43)cc2[nH]c1=O` [Compound 240], the IC50 is 200 nM.
The value for `Cc1cc2ccc([C@@](C)(C#N)[C@H]3CCc4cc(Br)ccc43)cc2[nH]c1=O` [Compound 241] was 200 nM.
Take `Cc1cc2ccc([C@](C)(C#N)[C@@H]3CCc4cc(Br)ccc43)cc2[nH]c1=O` [Compound 242]: the IC50 was 158 nM.
Take `Cc1cc2ccc(C(C)(C#N)C3CCc4cc(Br)ccc43)cc2[nH]c1=O` (stereo not shown) [Compound 244]: the IC50 was 200 nM.
Consider `Cc1cc2ccc(C(C)(C#N)C3CCc4c(Br)cccc43)cc2[nH]c1=O` (stereo not shown) [Compound 248], for which the IC50 is 79.4 nM.
Regarding `Cc1cc2ccc(C(C)(C#N)C3CCc4ccc(Br)cc43)cc2[nH]c1=O` (stereo not shown) [Compound 249], the IC50 is 126 nM.
Under `Cc1cc2ccc(C(C)(C#N)C3CCc4ccc(C#N)cc43)cc2[nH]c1=O` (stereo not shown) [Compound 250] stands 100 nM; under `C=C(C)c1cccc(CC(C)(C#N)c2ccc3cc(CC)c(=O)[nH]c3c2)c1` (stereo not shown) [Compound 254], 31.6 nM.
On to `CCc1cc2ccc(C(C#N)(CC)Cc3cccc(C#N)c3)cc2[nH]c1=O` (stereo not shown) [Compound 265], for which the IC50 was 20 nM.
As to `CCc1cc2ccc(C(C)(C#N)Cc3cc(F)cc(C#N)c3)cc2[nH]c1=O` (stereo not shown) [Compound 266], the IC50 is 50.1 nM.
Under `CCc1cc2ccc(C(C#N)(CC)Cc3cccc(F)c3)cc2[nH]c1=O` (stereo not shown) [Compound 270] stands 39.8 nM.
Under `Cc1cc2ccc(C(C)(C#N)CCCCOc3ccccc3)cc2[nH]c1=O` (stereo not shown) [Compound 272] stands 126 nM.
The value for `Cc1cc2ccc(C(C)(C#N)Cc3cc(F)cc(F)c3)cc2[nH]c1=O` (stereo not shown) [Compound 282] was 100 nM; that for `CCc1cc2ccc(C(C)(C#N)Cc3cc(C)cc(Br)c3)cc2[nH]c1=O` (stereo not shown) [Compound 284] was 31.6 nM.
Take `CCc1cc2ccc(C(C#N)(CC)Cc3cccc(OC)c3)cc2[nH]c1=O` (stereo not shown) [Compound 287]: the IC50 was 39.8 nM.
Under `CCc1cc2ccc(C(C)(C#N)CN(C)CCc3cn(C)c4ccccc34)cc2[nH]c1=O` (stereo not shown) [Compound 303] stands 63.1 nM.

The record behind these values is US8778966B2, “Quinolinone derivatives as PARP and tank inhibitors” (Janssen Pharmaceutica, NV, priority 2007, dated 2014).
